According to the supplement of paper PMC11061612:

Tests used:
Assay in all cases: combination Emax (second highest fraction inhibited in the dose matrix, 72 h); higher = more inhibition; extreme values may be limits of the assay
[1] = test system: KU-19-19 (Bladder Carcinoma)
Procedure, shortened: (§1)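 Cell lines in DMEM/F12 or RPMI with 10% FBS were plated in 1536-well plates, held 24 hours at 37°C, 5% CO2, then given two-drug dose matrices for 72 hours (DMSO typically 0.2%). Viability was read by CellTiter-Glo 2.0 luminescence and scaled as inhibition from 0 (vehicle wells) to 1 (blank wells). Combination Emax is the second-highest inhibition in the matrix; Bliss excess is observed combination effect minus expected EA + EB − EA·EB, EA and EB being single-agent effects.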

[2] = test system: BV-173 (Chronic Myelogenous Leukemia)
Procedure, shortened: as §1

GI-1 (Glioblastoma) = test system: GI-1 (Glioblastoma)
Procedure, shortened: as §1

[3] = test system: SCC-9 (Oral Cavity Carcinoma)
Procedure, shortened: as §1

[4] = test system: JHH-7 (Hepatocellular Carcinoma)
Procedure, shortened: as §1

[5] = test system: HuP-T3 (Pancreatic Carcinoma)
Procedure, shortened: as §1

[6] = test system: H-EMC-SS (Chondrosarcoma)
Procedure, shortened: as §1

[7] = test system: NCI-H2405 (Lung Adenocarcinoma)
Procedure, shortened: as §1

[8] = test system: KP-2 (Pancreatic Carcinoma)
Procedure, shortened: as §1

[9] = test system: OVISE (Ovarian Carcinoma)
Procedure, shortened: as §1

[10] = test system: NCI-H1573 (Lung Adenocarcinoma)
Procedure, shortened: as §1

[11] = test system: VMRC-LCD (Lung Adenocarcinoma)
Procedure, shortened: as §1

[12] = test system: EBC-1 (Squamous Cell Lung Carcinoma)
Procedure, shortened: as §1

[13] = test system: SNU-C1 (Colorectal Carcinoma)
Procedure, shortened: as §1

SMILES	combination Emax [1]	combination Emax [2]	combination Emax (GI-1 (Glioblastoma))	combination Emax [3]	combination Emax [4]	combination Emax [5]	combination Emax [6]	combination Emax [7]	combination Emax [8]	combination Emax [9]	combination Emax [10]	combination Emax [11]	combination Emax [12]	combination Emax [13]
Cc1cc2ncnn2cc1Nc1ncc2c(n1)n(C1CCOCC1)c(=O)n2C [AZD7648] + C[C@@H]1COCCN1C2=NC(=NC(=C2)C3(CC3)[S@](=N)(=O)C)C4=C5C=CNC5=NC=C4 [AZD6738] (first compound max 10 µM, 7x7, partner max 10 µM)	0.782	0.97	0.888	0.353	0.369	0.606	0.475	0.241	0.0981	0.666	0.592	0.579	0.293	0.38
Cc1cc2ncnn2cc1Nc1ncc2c(n1)n(C1CCOCC1)c(=O)n2C [AZD7648] + CCN(CCO)CCCOc1ccc2c(Nc3cc(CC(=O)Nc4cccc(F)c4)[nH]n3)ncnc2c1 [AZD2811] (first compound max 10 µM, 7x7, partner max 1 µM)	0.489	0.964	0.425	0.342	0.296	0.161	0.545	0.188	0.0095	0.308	0.214	0.619	0.18	0.351
Cc1nc(Nc2ncc(C(=O)Nc3c(C)cccc3Cl)s2)cc(N2CCN(CCO)CC2)n1 [Dasatinib] + CC(=O)Nc1cccc(-n2c(=O)n(C3CC3)c(=O)c3c(Nc4ccc(I)cc4F)n(C)c(=O)c(C)c32)c1 [Trametinib] (first compound max 2 µM, 7x7, partner max 1 µM)	1	0.819	0.368	0.856	0.306	0.868	0.684	0.712	0.712	0.828	0.707	0.163	0.997	0.578
CN(CCO)CC[C@H](CSc1ccccc1)Nc1ccc(S(=O)(=O)NC(=O)c2ccc(N3CCC([C@@H](O)c4ccccc4-c4ccc(Cl)cc4)CC3)cc2)cc1S(=O)(=O)C(F)(F)F [AZD4320] + Cc1cc2ncnn2cc1Nc1ncc2c(n1)n(C1CCOCC1)c(=O)n2C [AZD7648] (first compound max 1 µM, 7x7, partner max 10 µM)	0.119	0.961	0.457	0.306	0.344	0.153	0.524	0.186	0.857	0.779	0.135	0.0704	0.947	0.633
Cc1c2c(nn1C)CSCc1cc(n(C)n1)CSc1cc(c3ccccc3c1)OCCCc1c(C(=O)O)n(C)c3c-2c(Cl)ccc13 [AZD5991] + Cc1cc2ncnn2cc1Nc1ncc2c(n1)n(C1CCOCC1)c(=O)n2C [AZD7648] (first compound max 1 µM, 7x7, partner max 10 µM)	0.26	0.946	0.672	0.26	0.164	0.228	0.479	0.204	0.2	0.269	0.673	0.215	0.291	0.412
Cc1cc2ncnn2cc1Nc1ncc2c(n1)n(C1CCOCC1)c(=O)n2C [AZD7648] + C=CCn1c(=O)c2cnc(Nc3ccc(N4CCN(C)CC4)cc3)nc2n1-c1cccc(C(C)(C)O)n1 [AZD1775] (first compound max 10 µM, partner max 1 µM)	0.749	0.964	0.86	0.293	0.392	0.283	0.53	0.192	0.187	0.635	0.308	0.425	0.209	0.392
CC1(C)CCC(CN2CCN(c3ccc(C(=O)NS(=O)(=O)c4ccc(NCC5CCOCC5)c([N+](=O)[O-])c4)c(Oc4cnc5[nH]ccc5c4)c3)CC2)=C(c2ccc(Cl)cc2)C1 [Venetoclax] + CN(C)CCCOc1ccc(-c2ccc3ncc4c(c3c2)n(C2CCOCC2)c(=O)n4C)cn1 [AZD0156] (first compound max 1 µM, 7x7, partner max 1 µM)	0.135	0.833	0.234	0.174	0.18	0.145	0.206	0.14	0.19	0.262	0.168	0.153	0.275	0.163
CC1(C)CCC(CN2CCN(c3ccc(C(=O)NS(=O)(=O)c4ccc(NCC5CCOCC5)c([N+](=O)[O-])c4)c(Oc4cnc5[nH]ccc5c4)c3)CC2)=C(c2ccc(Cl)cc2)C1 [Venetoclax] + C[C@@H]1COCCN1C2=NC(=NC(=C2)C3(CC3)[S@](=N)(=O)C)C4=C5C=CNC5=NC=C4 [AZD6738] (first compound max 1 µM, 7x7, partner max 10 µM)	0.745	0.954	0.918	0.342	0.285	0.663	0.347	0.305	0.277	0.677	0.579	0.537	0.514	0.366
